Data reported in ChEMBL document CHEMBL5576135, “Discovery of Indolo[3,2-c]isoquinoline Derivatives as Novel Top1/2 Dual Inhibitors with Orally Efficacious Antitumor Activity and Low Toxicity” (J Med Chem, 2024).
pIC50: −log10 of the molar value. Active and inactive are the calls of the source. The calls are words filed in the database; no cut-off is given here.

Key:
[1] = target: T1, DNA topoisomerase 1 (Homo sapiens) (UniProt P11387); assay: Inhibition of Topoisomerase I (unknown origin) using pBR322 DNA as substrate at 2 uM incubated for 15 mins by EtBr staining based agarose gel electrophoresis method
T1 sequence (whole entry): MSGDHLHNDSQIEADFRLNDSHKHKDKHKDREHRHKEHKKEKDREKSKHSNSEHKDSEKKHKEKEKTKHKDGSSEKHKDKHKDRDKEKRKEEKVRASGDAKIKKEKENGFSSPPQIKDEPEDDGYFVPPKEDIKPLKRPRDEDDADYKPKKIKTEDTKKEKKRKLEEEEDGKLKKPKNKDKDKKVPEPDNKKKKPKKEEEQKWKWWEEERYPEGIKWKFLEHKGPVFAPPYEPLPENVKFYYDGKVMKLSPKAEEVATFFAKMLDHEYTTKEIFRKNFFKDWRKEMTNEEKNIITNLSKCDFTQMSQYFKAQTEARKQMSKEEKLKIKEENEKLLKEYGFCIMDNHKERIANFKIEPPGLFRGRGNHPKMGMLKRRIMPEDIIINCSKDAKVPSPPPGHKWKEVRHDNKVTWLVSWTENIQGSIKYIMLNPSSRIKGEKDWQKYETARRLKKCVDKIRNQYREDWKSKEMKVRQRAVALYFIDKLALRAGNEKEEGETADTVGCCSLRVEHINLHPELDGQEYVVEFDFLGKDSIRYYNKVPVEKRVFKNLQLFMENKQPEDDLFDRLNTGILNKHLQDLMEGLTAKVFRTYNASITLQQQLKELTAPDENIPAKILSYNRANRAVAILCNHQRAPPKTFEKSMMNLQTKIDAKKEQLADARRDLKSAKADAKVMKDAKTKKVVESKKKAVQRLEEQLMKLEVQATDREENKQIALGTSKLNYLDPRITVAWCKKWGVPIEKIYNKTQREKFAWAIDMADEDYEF

[2] = Antiproliferative activity against human BEAS-2B cells assessed as inhibition of cell growth incubated for 96 hrs by MTT based ELISA; type: toxicity
NCI-H446 [3] = assay: Induction of cell cycle arrest in human NCI-H446 cells assessed as accumulation of cells at S phase at 2 uM incubated for 48 hrs by propidium iodide/RNase A staining based flow cytometry relative to control; type: functional
HCT-116 [4] = assay: Antitumor activity against human HCT-116 cells xenografted with BALB/c mouse assessed as tumor growth inhibition at 50 mg/kg,po administrated once daily for 21 days relative to control; type: functional; settings: HCT-116, 504 h, time 21 day, read-out: TGI
Huh-7 = assay: Antiproliferative activity against human Huh-7 cells assessed as inhibition of cell growth incubated for 96 hrs by MTT based ELISA; type: functional; settings: Huh-7, 96 h
MCF7 = assay: Antiproliferative activity against human MCF7 cells assessed as inhibition of cell growth incubated for 96 hrs by MTT based ELISA; type: functional; settings: MCF7, 96 h
[5] = MRT (0 to t) in ICR mouse at 10 mg/kg,po measured upto 24 hrs by LC-MS/MS analysis; type: ADME, organism-based; settings: in vivo
[6] = target: DNA topoisomerase 2-alpha (Homo sapiens) (UniProt P11388); assay: Inhibition of Topoisomerase 2 (unknown origin) using pBR322 DNA as substrate at 0.5 uM incubated for 15 mins by EtBr staining based agarose gel electrophoresis method
[7] = Toxicity in Kunming mouse assessed as morphological change in liver at 100 mg/kg,po administration for 2 weeks; type: organism-based; settings: in vivo, 336 h
[8] = Toxicity in Kunming mouse assessed as change in organ coefficient of heart at 100 mg/kg,po administration for 2 weeks; type: organism-based; settings: in vivo, 336 h
NCI-H446 [9] = assay: Induction of cell cycle arrest in human NCI-H446 cells assessed as accumulation of cells at G2/M phase at 1 to 2 uM incubated for 48 hrs by propidium iodide/RNase A staining based flow cytometry; type: functional; settings: dose 1-2 µM
[10] = Toxicity in Kunming mouse assessed as change in serum ALT level at 100 mg/kg,po administration for 2 weeks; type: organism-based; settings: in vivo, 336 h
NCI-H446 [11] = assay: Induction of cell cycle arrest in human NCI-H446 cells assessed as accumulation of cells at S phase at 1 to 2 uM incubated for 48 hrs by propidium iodide/RNase A staining based flow cytometry; type: functional; settings: dose 1-2 µM
NCI-H446 [12] = assay: Induction of apoptosis in human NCI-H446 cells at 8 uM incubated for 48 hrs by Annexin V-FITC/PI staining based flow cytometry relative to control; type: functional
NCI-H446 [13] = assay: Antitumor activity against human NCI-H446 cells xenografted with BALB/c mouse assessed as tumor growth inhibition at 100 mg/kg,po administrated once daily for 21 days relative to control; type: functional; settings: NCI-H446, 504 h, time 21 day, read-out: TGI
[14] = Half life in ICR mouse at 10 mg/kg,po measured upto 24 hrs by LC-MS/MS analysis; type: ADME, organism-based; settings: in vivo
NCI-H446 [15] = assay: Induction of DNA damage in human NCI-H446 cells assessed as tail DNA at 8 uM incubated for 48 hrs by comet assay relative to control; type: functional
NCI-H446 [16] = assay: Induction of cell cycle arrest in human NCI-H446 cells assessed as accumulation of cells at G2/M phase at 2 uM incubated for 48 hrs by propidium iodide/RNase A staining based flow cytometry relative to control; type: functional
[17] = AUC (0 to infinity) in ICR mouse at 10 mg/kg,po measured upto 24 hrs by LC-MS/MS analysis; type: ADME, organism-based; settings: in vivo
[18] = target: T1, DNA topoisomerase 1 (Homo sapiens); assay: Inhibition of Topoisomerase I (unknown origin) using pBR322 DNA as substrate at 200 uM incubated for 15 mins by EtBr staining based agarose gel electrophoresis method relative to control
[19] = target: DNA topoisomerase 2-alpha (Homo sapiens) (UniProt P11388); assay: Inhibition of Topoisomerase 2 (unknown origin) using pBR322 DNA as substrate at 10 uM incubated for 15 mins by EtBr staining based agarose gel electrophoresis method
NCI-H1650 = assay: Antiproliferative activity against human NCI-H1650 cells assessed as inhibition of cell growth incubated for 96 hrs by MTT based ELISA; type: functional; settings: NCI-H1650, 96 h
[20] = AUC (0 to t) in ICR mouse at 10 mg/kg,po measured upto 24 hrs by LC-MS/MS analysis; type: ADME, organism-based; settings: in vivo
NCI-H1975 = assay: Antiproliferative activity against human NCI-H1975 cells assessed as inhibition of cell growth incubated for 96 hrs by MTT based ELISA; type: functional; settings: NCI-H1975, 96 h
[21] = target: T1, DNA topoisomerase 1 (Homo sapiens); assay: Inhibition of Topoisomerase I (unknown origin) using pBR322 DNA as substrate at 1 uM incubated for 15 mins by EtBr staining based agarose gel electrophoresis method
[22] = target: T1, DNA topoisomerase 1 (Homo sapiens); assay: Inhibition of Topoisomerase I (unknown origin) using pBR322 DNA as substrate at 50 uM incubated for 15 mins by EtBr staining based agarose gel electrophoresis method
HCT-116 [23] = assay: Antiproliferative activity against human HCT-116 cells assessed as inhibition of cell growth incubated for 96 hrs by MTT based ELISA; type: functional; settings: HCT-116, 96 h
[24] = target: T1, DNA topoisomerase 1 (Homo sapiens); assay: Inhibition of Topoisomerase I (unknown origin) using pBR322 DNA as substrate at 5 uM incubated for 15 mins by EtBr staining based agarose gel electrophoresis method

DNA topoisomerase 2-alpha (Homo sapiens), sequence (P11388 whole entry): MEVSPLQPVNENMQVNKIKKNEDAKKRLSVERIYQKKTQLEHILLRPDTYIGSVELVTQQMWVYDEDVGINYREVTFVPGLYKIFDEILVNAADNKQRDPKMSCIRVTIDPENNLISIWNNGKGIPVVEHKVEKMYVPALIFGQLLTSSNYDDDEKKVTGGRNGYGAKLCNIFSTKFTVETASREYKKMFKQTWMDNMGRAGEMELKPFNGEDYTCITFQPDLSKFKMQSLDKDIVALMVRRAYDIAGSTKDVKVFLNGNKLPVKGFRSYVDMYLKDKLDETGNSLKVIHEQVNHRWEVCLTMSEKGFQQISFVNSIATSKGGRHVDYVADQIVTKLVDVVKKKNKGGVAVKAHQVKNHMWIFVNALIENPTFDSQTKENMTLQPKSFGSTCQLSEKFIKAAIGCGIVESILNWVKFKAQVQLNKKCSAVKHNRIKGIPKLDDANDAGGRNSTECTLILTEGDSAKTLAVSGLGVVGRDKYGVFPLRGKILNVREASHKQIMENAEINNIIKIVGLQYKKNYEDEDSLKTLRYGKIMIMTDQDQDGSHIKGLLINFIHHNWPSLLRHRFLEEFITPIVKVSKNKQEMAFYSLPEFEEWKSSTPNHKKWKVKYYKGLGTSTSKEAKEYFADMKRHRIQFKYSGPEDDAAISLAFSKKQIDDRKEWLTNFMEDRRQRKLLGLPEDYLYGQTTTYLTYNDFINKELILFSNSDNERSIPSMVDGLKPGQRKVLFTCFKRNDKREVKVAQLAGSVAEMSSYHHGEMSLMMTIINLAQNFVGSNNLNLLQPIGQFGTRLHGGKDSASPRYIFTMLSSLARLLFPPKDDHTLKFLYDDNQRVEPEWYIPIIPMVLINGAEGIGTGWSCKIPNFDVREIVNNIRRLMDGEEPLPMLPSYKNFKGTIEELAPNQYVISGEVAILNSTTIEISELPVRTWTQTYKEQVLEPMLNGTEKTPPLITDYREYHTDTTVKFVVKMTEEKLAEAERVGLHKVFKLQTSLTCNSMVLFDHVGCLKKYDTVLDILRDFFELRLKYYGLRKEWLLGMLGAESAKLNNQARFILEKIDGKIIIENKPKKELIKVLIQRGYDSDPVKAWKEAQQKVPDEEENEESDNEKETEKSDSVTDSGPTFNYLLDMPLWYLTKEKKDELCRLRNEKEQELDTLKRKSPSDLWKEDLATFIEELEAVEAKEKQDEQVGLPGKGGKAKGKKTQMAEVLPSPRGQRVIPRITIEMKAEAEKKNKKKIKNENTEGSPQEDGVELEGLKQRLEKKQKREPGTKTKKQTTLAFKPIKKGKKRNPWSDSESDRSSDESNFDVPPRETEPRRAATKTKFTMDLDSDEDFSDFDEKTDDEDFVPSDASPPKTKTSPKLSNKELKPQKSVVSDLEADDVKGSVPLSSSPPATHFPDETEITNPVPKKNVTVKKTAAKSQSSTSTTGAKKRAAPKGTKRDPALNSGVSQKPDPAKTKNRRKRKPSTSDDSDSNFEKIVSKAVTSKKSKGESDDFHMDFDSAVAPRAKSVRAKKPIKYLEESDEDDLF

| SMILES | IC50 at 96 h [2] | Activity (NCI-H446 [3]) | pIC50 (Huh-7) | pIC50 (MCF7) | MRT last at 24 h [5] | inhibition [6] | Activity [7] | Activity [8] | Activity (NCI-H446 [9]) | Activity [10] | Activity (NCI-H446 [11]) | Activity (NCI-H446 [12]) | half-life [14] | Activity (NCI-H446 [15]) | Activity (NCI-H446 [16]) | AUC(0-inf) [17] | inhibition [18] | inhibition [19] | pIC50 (NCI-H1650) | AUC(0-t) at 24 h [20] | also measured |
| --- | --- | --- | --- | --- | --- | --- | --- | --- | --- | --- | --- | --- | --- | --- | --- | --- | --- | --- | --- | --- | --- |
| CN(C)CCCn1c2cc3c(cc2c2ncc4ccccc4c21)OCO3 | 9570 nM | 61.1% | 6.08 | 6.46 | 5 h | Active | Non-Toxic | Non-Toxic | Active | Non-Toxic | Active | 95.3% | 1.66 h | 65.4% | 61.1% | 2040 ng·h/mL | > 95% | Active | 6.06 | 2040 ng·h/mL | inhibition [1]: Active; inhibition in vivo at 50 mg/kg (HCT-116 [4]): 40.8%; inhibition in vivo at 100 mg/kg (NCI-H446 [13]): 66.1%; pIC50 (NCI-H1975): 6.13; inhibition [21]: Active; inhibition [22]: Active; pIC50 (HCT-116 [23]): 6.68; inhibition [24]: Active |
| COc1ccc2c(c1)c1ncc3ccccc3c1n2CCCC(=O)NO | > 10000 nM | 60.3% | 5.60 | 6.17 | 1.35 h | Active | Non-Toxic | Non-Toxic | Active | Non-Toxic | Active | 77.5% | 1.15 h | 54.8% | 60.3% | 267 ng·h/mL | > 95% | Active | 5.99 | 244 ng·h/mL | pIC50 (NCI-H1975): 6.02; inhibition [22]: Active; pIC50 (HCT-116 [23]): 6.28 |
